This passage reports T/C results from PubChem BioAssay AID330 (DTP/NCI, 2004).

Several values for one entry are separate records, joined by “and”; a condition that tells them apart may be missing. Identical values can stand only once. Inconclusive results and toxic doses are left out. Numbered stars: 1 amine (or outer) side, 2 acyl side, 3 side chain; on linkers, the order of the positions; unused ones are H or OH. Bridge positions count the residues as written; N and C are the ends. Square brackets hold non-standard residues; d marks the D form. Peptide text beside a SMILES is read from it. ξ: configuration not given here. X1 = CC[C@@H](C)[C@H](N[*:1])[C@H](O)CC(=O)OC(C(=O)C(C)C(=O)[*:2])C(C)C; ξNMeY = CNC(Cc1ccc(O)cc1)C(=O)O; ξNMeL = CNC(CC(C)C)C(=O)O; ξL = CC(C)CC(N)C(=O)O; ξT = CC(O)C(N)C(=O)O; ξP = O=C(O)C1CCCN1

The subject of this test is P388 leukemia ip, CD2F1 mice, survival T/C. The test can be described thus: NCI In Vivo Anticancer Drug Screen. Data for tumor model P388 Leukemia (intraperitoneal) in CD2F1 (CDF1) mice. The following applies: endpoint: median survival time, higher = longer survival. The gist of the method:
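Mice carrying the transplanted tumor received test compound or vehicle. Survival was recorded in each group, and the value is the treated-group measurement divided by that of the vehicle-treated control group.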

[1] abbreviates: dose: 50.0 mg/kg/injection, schedule: Q01DX009 (ip), vehicle: saline with Tween-80.

As for `C=Cc1c2[n-]c(c1C)/C=c1\[n-]/c(c(C)c1C=C)=C\c1[n-]c(c(CCC(=O)O)c1C)/C=c1\[n-]/c(c(C)c1CCC(=O)O)=C\2.[Pt+4]`, the T/C (dose: 50.0 mg/kg/injection, schedule: Q04DX002 (ip), vehicle: saline) is 89 % of control; the T/C (dose: 100.0 mg/kg/injection, schedule: Q04DX002 (ip), vehicle: saline) is 100 % of control; the T/C (dose: 200.0 mg/kg/injection, schedule: Q04DX002 (ip), vehicle: saline) is 97 % of control.

In the case of `C=C(NC(C)=O)C(=O)CCC(N)=O`, the T/C (dose: 5.0 mg/kg/injection, schedule: Q01DX009 (ip), vehicle: saline sonified) was 109 % of control; the T/C (dose: 10.0 mg/kg/injection, schedule: Q01DX009 (ip), vehicle: saline sonified) was 109 % of control; the T/C (dose: 20.0 mg/kg/injection, schedule: Q01DX009 (ip), vehicle: saline sonified) was 104 % of control.

Take `CSC(=S)n1nc(-c2ccccc2)c(N=Nc2ccc(Br)cc2)c1C`: the T/C reads like this: (dose: 100.0 mg/kg/injection, schedule: Q04DX002 (ip), vehicle: Klucel (hydroxypropylcellulose) (HPC)) 98 % of control; (dose: 200.0 mg/kg/injection, schedule: Q04DX002 (ip), vehicle: Klucel (hydroxypropylcellulose) (HPC)) 100 % of control; (dose: 400.0 mg/kg/injection, schedule: Q04DX002 (ip), vehicle: Klucel (hydroxypropylcellulose) (HPC)) 94 % of control.

On to `N#CCSc1nc(N)nc2nc[nH]c12`, for which the T/C reads like this: (dose: 50.0 mg/kg/injection, schedule: Q01DX009 (ip), vehicle: saline sonified) 95 % of control; (dose: 50.0 mg/kg/injection, schedule: Q04DX003 (ip), vehicle: saline with Tween-80) 95 % of control; (dose: 100.0 mg/kg/injection, schedule: Q01DX009 (ip), vehicle: saline sonified) 100 % of control; (dose: 100.0 mg/kg/injection, schedule: Q04DX003 (ip), vehicle: saline with Tween-80) 100 % of control; (dose: 200.0 mg/kg/injection, schedule: Q01DX009 (ip), vehicle: saline sonified) 95 % of control; (dose: 200.0 mg/kg/injection, schedule: Q04DX003 (ip), vehicle: saline with Tween-80) 95 % of control.

For `COC(=O)C1(C(=O)OC)O[C@@H](c2ccccc2)[C@H]2C(=O)N(C)C(=O)[C@H]21`, the T/C was 99 % of control (dose: 60.0 mg/kg/injection, schedule: Q01DX005 (ip), vehicle: Klucel (hydroxypropylcellulose) (HPC)); 101 % of control (dose: 120.0 mg/kg/injection, schedule: Q01DX005 (ip), vehicle: Klucel (hydroxypropylcellulose) (HPC)); 110 % of control (dose: 240.0 mg/kg/injection, schedule: Q01DX005 (ip), vehicle: Klucel (hydroxypropylcellulose) (HPC)).

Take `CCN(CC)CCC(=O)/C=C/c1ccccc1`: the T/C is, setting by setting: (dose: 25.0 mg/kg/injection, schedule: Q01DX009 (ip), vehicle: saline) 111 % of control; (dose: 50.0 mg/kg/injection, schedule: Q01DX009 (ip), vehicle: saline) 116 % of control and 118 % of control.

As for `COC1=Nc2ccccc2S(=O)(=O)C=C1`, the T/C (dose: 15.0 mg/kg/injection, schedule: Q01DX005 (ip), vehicle: saline with Tween-80) is 101 % of control; the T/C (dose: 30.0 mg/kg/injection, schedule: Q01DX005 (ip), vehicle: saline with Tween-80) was 104 % of control; the T/C (dose: 60.0 mg/kg/injection, schedule: Q01DX005 (ip), vehicle: saline with Tween-80) was 116 % of control and 119 % of control.

Regarding `O=C1C=C(Cl)C(=O)C(c2ccc(Cl)cc2)=C1`, the T/C reads like this: (dose: 6.25 mg/kg/injection, schedule: Q01DX009 (ip), vehicle: Klucel (hydroxypropylcellulose) (HPC)) 100 % of control; (dose: 12.5 mg/kg/injection, schedule: Q01DX009 (ip), vehicle: Klucel (hydroxypropylcellulose) (HPC)) 96 % of control; (dose: 50.0 mg/kg/injection, schedule: Q01DX009 (ip), vehicle: Klucel (hydroxypropylcellulose) (HPC)) 92 % of control.

Regarding `O=C(O)c1cc(-c2ccccc2)[nH]c1-c1ccccc1`, the T/C was 103 % of control (dose: 12.5 mg/kg/injection, schedule: Q01DX009 (ip), vehicle: saline with Tween-80); 106 % of control (dose: 25.0 mg/kg/injection, schedule: Q01DX009 (ip), vehicle: saline with Tween-80); 90 % of control under setting [1].

Turning to `CC[C@@H](C)[C@@H]1NC(=O)C(NC(=O)C(CC(C)C)NC)C(C)OC(=O)C(Cc2ccc(OC)cc2)N(C)C(=O)C2CCCN2C(=O)C(CC(C)C)NC(=O)C(C)C(=O)C(C(C)C)OC(=O)C[C@H]1O` (stereo not given in full) (H-[ξNMeL][ξT][X1][ξL][ξP][ξNMeY](Me); ester 2-C), the T/C reads like this: (dose: 0.06 mg/kg/injection, schedule: Q01DX005 (ip), vehicle: water) 104 % of control; (dose: 0.13 mg/kg/injection, schedule: Q01DX005 (ip), vehicle: water) 112 % of control; (dose: 0.25 mg/kg/injection, schedule: Q01DX005 (ip), vehicle: water) 114 % of control; (dose: 0.5 mg/kg/injection, schedule: Q01DX005 (ip), vehicle: saline + alcohol) 113 % of control; (dose: 1.0 mg/kg/injection, schedule: Q01DX005 (ip), vehicle: saline + alcohol) 124 % of control; (dose: 2.0 mg/kg/injection, schedule: Q01DX005 (ip), vehicle: water) 150 % of control. Also, the T/C is 106 % of control (dose: 0.25 micrograms/kg/injection, schedule: Q01DX005 (ip), vehicle: saline + alcohol); 110 % of control (dose: 0.5 micrograms/kg/injection, schedule: Q01DX005 (ip), vehicle: saline + alcohol); 96 % of control (dose: 1.0 micrograms/kg/injection, schedule: Q01DX005 (ip), vehicle: saline + alcohol); 100 % of control (dose: 2.0 micrograms/kg/injection, schedule: Q01DX005 (ip), vehicle: saline + alcohol).

With `CC(C)[C@](O)(C(=O)OCC1CCN2CC[C@@H](O)C12)[C@H](C)O` (stereo not given in full), the T/C was 96 % of control (dose: 40.6 mg/kg/injection, schedule: Q01DX009 (ip), vehicle: saline); 102 % of control (dose: 81.25 mg/kg/injection, schedule: Q01DX009 (ip), vehicle: saline); 92 % of control and 98 % of control (dose: 162.5 mg/kg/injection, schedule: Q01DX009 (ip), vehicle: saline).

Turning to `CN(C)c1nc(N(C)C)nc([N+]23CN4CN(CN(C4)C2)C3)n1`, the T/C runs as follows: under setting [1], 114 % of control; (dose: 100.0 mg/kg/injection, schedule: Q01DX009 (ip), vehicle: saline with Tween-80) 108 % of control; (dose: 200.0 mg/kg/injection, schedule: Q01DX009 (ip), vehicle: saline with Tween-80) 114 % of control.

On to `CC(/C=C/c1ccc(C)cc1)=N\NC(N)=S`, for which the T/C is 99 % of control (dose: 1.5 mg/kg/injection, schedule: Q01DX005 (ip), vehicle: Klucel + Tween-80); 105 % of control (dose: 3.0 mg/kg/injection, schedule: Q01DX005 (ip), vehicle: Klucel + Tween-80); 105 % of control (dose: 6.0 mg/kg/injection, schedule: Q01DX005 (ip), vehicle: Klucel + Tween-80); 112 % of control (dose: 6.0 mg/kg/injection, schedule: Q01DX005 (ip), vehicle: saline).

For the compound `CC1OC(OC2CC(O)(C(=O)CO)Cc3c(O)c4c(c(O)c32)C(=O)c2ccccc2C4=O)CC(N)C1O` (stereo not given), the T/C runs as follows: (dose: 0.05 mg/kg/injection, schedule: Q01DX009 (ip), vehicle: water) 159 % of control; (dose: 0.1 mg/kg/injection, schedule: Q01DX009 (ip), vehicle: water) 185 % of control and 216 % of control; (dose: 0.2 mg/kg/injection, schedule: Q01DX009 (ip), vehicle: water) 221 % of control and 261 % of control; (dose: 0.21 mg/kg/injection, schedule: Q04DX003 (ip), vehicle: water) 172 % of control; (dose: 0.25 mg/kg/injection, schedule: Q04DX003 (ip), vehicle: water) 101 % of control and 122 % of control; (dose: 0.36 mg/kg/injection, schedule: Q04DX003 (ip), vehicle: water) 209 % of control. In addition, the T/C is 115 % of control (dose: 0.39 mg/kg/injection, schedule: Q01DX009 (ip), vehicle: water); 115 % of control (dose: 0.4 mg/kg/injection, schedule: Q01DX009 (ip), vehicle: water); 157 % of control (dose: 0.5 mg/kg/injection, schedule: Q04DX003 (ip), vehicle: water); 239 % of control (dose: 0.6 mg/kg/injection, schedule: Q04DX003 (ip), vehicle: water); 86 % of control (dose: 0.78 mg/kg/injection, schedule: Q01DX009 (ip), vehicle: water); 167 % of control and 183 % of control (dose: 1.0 mg/kg/injection, schedule: Q04DX003 (ip), vehicle: water). The T/C runs as follows: (dose: 1.3 mg/kg/injection, schedule: Q01DX001 (ip), vehicle: water) 216 % of control; (dose: 2.4 mg/kg/injection, schedule: Q01DX001 (ip), vehicle: water) 104 % of control; (dose: 3.2 mg/kg/injection, schedule: Q01DX001 (ip), vehicle: water) 97 % of control; (dose: 4.0 mg/kg/injection, schedule: Q04DX003 (ip), vehicle: water) 104 % of control.
